Results: publication PMC10786692 (The Journal of Clinical Investigation, 2024)

Tested on: phospho-(S345)Chk1
Experiment: PBMC phospho-Chk1 immunofluorescence
Type: in vivo, human
Conditions: after 2-week dosing
Method: PD sampling took place at baseline (within 7 days prior to dosing) and between days 15 and 22 of dosing (day 14 for intermittent dosing cohorts). PD samples included PBMCs and tumor biopsies. PBMCs were analyzed by immunofluorescence for γ^(S139)H2AX, p-^(S345)Chk1, and total Chk1, as described in Supplemental Methods. Paired tumor biopsies were formalin fixed and analyzed for nuclear p-^(S635)Rad50 and γH2AX by IHC.
PBMCs were isolated from blood using BD Vacutainer® CPT™ Cell preparation tubes with sodium citrate (BD Biosciences, Wokingham, UK) and fixed with 4% formalin containing 1% Triton™ X-100 (Sigma-Aldrich, St. Louis, MO). […] A Carl Zeiss LSM 700 confocal laser scanning fluorescence microscope (Zeiss, Jena, Germany) was used to visualize and capture images of the PBMCs. Fluorescent nuclear intensity for phospho-(S345) and total Chk1 in individual PBMC cells were quantified using the IN Cell Investigator Developer Toolbox v1.9 software (GE Healthcare Biosciences, Piscataway, NJ). For the phospho(S345)- and total Chk1 assays: the raw data values (fluorescent nuclear intensity for PBMCs), the percentage change for phospho(S345) biomarker was calculated for each subject by comparing the levels measured at each post-dose time point to pre-dose levels measured at baseline. […]
Peripheral blood was drawn into 8 mL EDTA tubes (Vacutainer, BD) and analyzed within 24 hours. […]

## C[C@@H]1COCCN1c1cc(C2([S@](C)(=N)=O)CC2)nc(-c2cc[nH]c3nccc2-3)n1 [ceralasertib]
  p-Chk1 levels in PBMCs with treatment: not consistent
